{
  "source": "paper PMC5419573",
  "about": "“TRPV1 activation power can switch an action mode for its polypeptide ligands” (PLoS ONE, 2017)",
  "molecules": {"B1": {"name": "DkTx: the bivalent toxin DkTx from tiger tarantula Ornithoctonus huwena (peptide, UniProt P0CH43 1-79, looked up)", "Tau-theraphotoxin-Hs1a": "DCAKEGEVCSWGKKCCDLDNFYCPMEFIPHCKKYKPYVPVTTNCAKEGEVCGWGSKCCHGLDCPLAFIPYCEKYRGRND", "modifications": "Tau-theraphotoxin-Hs1a", "notes": "the bivalent toxin DkTx from tiger tarantula Ornithoctonus huwena"}},
  "key": {"rat TRPV1 [1]": {"target": "T1, rat TRPV1 (Rattus norvegicus, UniProt O35433)", "T1 construct": "expressed in transfected cells; host or cells: CHO cells (T-Rex System, Invitrogen; tetracycline-induced)", "T1 sequence (O35433 whole entry)": "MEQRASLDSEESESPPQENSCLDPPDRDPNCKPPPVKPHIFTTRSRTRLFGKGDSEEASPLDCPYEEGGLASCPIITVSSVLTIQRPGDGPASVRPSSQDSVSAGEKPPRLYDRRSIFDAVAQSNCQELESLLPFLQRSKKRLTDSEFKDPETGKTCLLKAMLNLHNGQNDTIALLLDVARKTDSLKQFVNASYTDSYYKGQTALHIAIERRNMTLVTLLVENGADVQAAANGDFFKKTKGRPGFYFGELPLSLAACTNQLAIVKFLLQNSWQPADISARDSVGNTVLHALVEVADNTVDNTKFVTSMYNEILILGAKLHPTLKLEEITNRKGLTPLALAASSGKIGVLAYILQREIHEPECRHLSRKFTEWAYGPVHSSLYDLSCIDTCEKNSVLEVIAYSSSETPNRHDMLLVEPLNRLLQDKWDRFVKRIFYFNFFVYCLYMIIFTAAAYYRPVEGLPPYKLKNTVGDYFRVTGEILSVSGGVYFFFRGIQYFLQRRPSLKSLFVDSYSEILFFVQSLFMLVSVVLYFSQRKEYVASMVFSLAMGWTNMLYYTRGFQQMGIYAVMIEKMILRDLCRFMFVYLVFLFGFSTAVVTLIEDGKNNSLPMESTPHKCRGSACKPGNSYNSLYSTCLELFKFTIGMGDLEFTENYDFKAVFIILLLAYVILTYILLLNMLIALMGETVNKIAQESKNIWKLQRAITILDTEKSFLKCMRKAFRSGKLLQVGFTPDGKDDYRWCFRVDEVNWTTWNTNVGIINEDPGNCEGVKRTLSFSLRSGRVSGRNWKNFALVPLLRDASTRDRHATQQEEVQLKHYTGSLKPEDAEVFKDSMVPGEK", "format": "cell-based", "description": "(§1) All data were expressed as the mean ± standard deviation (SD). Significance of the effect was tested by ANOVA followed by Tukey’s post hoc analysis with the p-value of 0.05."}, "rat TRPV1 [2]": {"target": "T1, rat TRPV1", "format": "cell-based", "description": "Recordings were made by a patch-clamp technique in whole-cell configuration using CHO cells stably expressing rat TRPV1. Whole-cell currents were recorded and digitized by Instru TECH LIH 8+8 data acquisition system (HEKA, Germany) at -80 mV holding voltage using EPC-8 (HEKA, Germany) amplifier, filtered at 5 kHz, sampled at 10kHz and stored. The external solution contained in mM: CaCl2 2.5, KCl 5, NaCl 143, D-glucose 18, HEPES 10, pH 7.35. Patch pipettes (2–5 MΩ resistance) were prepared by puller model P-97 (Sutter Instruments, USA). Pipette solution contained in mM: CsF 100, CsCl 40, NaCl 5, CaCl2 0.5, EGTA 5, HEPES 10, pH 7.2. Series resistance of about 20 MΩ was compensated by 70–80% and monitored during experiments. Drugs were applied using the ALA-VM8 (ALA Scientific Instruments, USA) perfusion system under computer control. All experiments were performed at 22°C.\nas §1\nThe cell line stably expressing rat TRPV1 was used for electrophysiological and internal Ca^2+ fluorescent recordings. […] In Fluo-4-based intracellular calcium assay experiments, capsaicin or 2APB were used as channel agonists. […] To take the response rundown in account, the peptide effects were measured relative to the average value of the preceding and subsequent control responses (see S2 Fig).\nFig 1 Action of APHCs on capsaicin-induced TRPV1 currents. […] G, Current–voltage relationship for TRPV1 currents induced by 3 and 0.3 μM capsaicin in control (black and red) and in the presence of 100 nM APHC1 (blue and magenta). […] I, Summary of the polypeptides action (100 nM) on TRPV1 responses activated by different concentrations of capsaicin, n = 9 for all series.", "remark": "listed apart in the source"}, "rat TRPV1 [3]": {"target": "T1, rat TRPV1", "details": "ref [8], [10], [11]; cited from earlier work", "text": "(§2) Since elaboration of TRPV1 pharmacology has obvious perspectives related to the potential treatment of pain and inflammation, many compounds affecting TRPV1 activation have been characterized. Some TRPV1 ligands have distinct effects on different modes of channel activation (heat, protons or chemical ligands)."}, "human TRPV1": {"test_system": "human TRPV1", "details": "cited from earlier work", "text": "as §2"}, "monkey TRPV1": {"test_system": "monkey TRPV1", "details": "ref [10], [11]; cited from earlier work", "text": "as §2"}, "mice": {"test_system": "mice", "details": "ref [20], [21], [22]; cited from earlier work", "text": "Small lipophilic drugs can potentially reach their binding sites in different parts of a receptor, which complicates the study of mechanisms of action. Binding sites for membrane-impermeable peptide modulators should be localized at the outside surface of a channel protein. There are a few examples of polypeptides affecting TRPV1 channels."}, "TRPV1": {"test_system": "TRPV1", "parameters": "method as in PMID 17093448, PMID 20510930, PMID 26420335, PMID 24061123", "details": "ref [20], [21], [22], [39]; cited from earlier work"}},
  "note": "“Also recorded” adds a separate entry of the source.",
  "data": [
    {"molecule": "Oc1cc2c(cc1O)CN(C(=S)NCCc1ccc(Cl)cc1)CCC2", "note": "[capsazepine]", "values": [
      {"measurement": "block of calcium responses to capsaicin", "setting": "rat TRPV1 [1]", "result": "fully blocked; also recorded: abolished"},
      {"measurement": "block of capsaicin-evoked currents", "setting": "rat TRPV1 [2]", "result": "reversibly blocked; also recorded: abolished"},
      {"measurement": "effect on capsaicin response of rat TRPV1", "setting": "rat TRPV1 [3]", "result": "heat and capsaicin responses are blocked at low capsazepine concentrations"},
      {"measurement": "effect on heat response of rat TRPV1", "setting": "rat TRPV1 [3]", "result": "heat and capsaicin responses are blocked at low capsazepine concentrations"},
      {"measurement": "effect on proton response of rat TRPV1", "setting": "rat TRPV1 [3]", "result": "ineffective as an antagonist of proton-induced response"}
    ]},
    {"molecule": "O=C(/C=C/c1ccc(C(F)(F)F)cc1N1CCCCC1)Nc1cccc2c1C[C@H](O)C2", "note": "[AMG8562, (R,E)-N-(2-hydroxy-2,3-dihydro-1H-inden-4-yl)-3-(2-(piperidin-1-yl)-4-(trifluoromethyl)phenyl)-acrylamide]", "values": [
      {"measurement": "effect on capsaicin response of rat TRPV1", "setting": "rat TRPV1 [3]", "result": "blocks capsaicin activation"},
      {"measurement": "effect on heat response of rat TRPV1", "setting": "rat TRPV1 [3]", "result": "does not affect heat activation"},
      {"measurement": "effect on proton response of rat TRPV1", "setting": "rat TRPV1 [3]", "result": "potentiates proton activation"},
      {"measurement": "effect on capsaicin activation of human TRPV1", "setting": "human TRPV1; ref [11]", "result": "blocks both heat and capsaicin activation"},
      {"measurement": "effect on heat activation of human TRPV1", "setting": "human TRPV1; ref [11]", "result": "blocks both heat and capsaicin activation"},
      {"measurement": "effect on proton activation of human TRPV1", "setting": "human TRPV1; ref [11]", "result": "partial antagonist of proton activation"}
    ]},
    {"molecule": "COc1cc(CNC(=O)CCCC/C=C/C(C)C)ccc1O", "note": "[capsaicin]", "values": [
      {"measurement": "reversal voltage of evoked currents", "setting": "rat TRPV1 [2]", "result": "close to zero"}
    ]},
    {"molecule": "NCCOB(c1ccccc1)c1ccccc1", "note": "[2APB, 2-aminoethoxydiphenyl borate]", "values": [
      {"measurement": "Ca2+ influx on agonist application", "setting": "rat TRPV1 [1]", "result": "did not result in a detectable Ca^2+ influx"},
      {"measurement": "reversal voltage of evoked currents", "setting": "rat TRPV1 [2]", "result": "close to zero"}
    ]},
    {"molecule": "CC(C)(C)c1ccc(CNC(=S)NCc2ccc(NS(C)(=O)=O)c(F)c2)cc1", "note": "[JYL-1421]", "values": [
      {"measurement": "effect on capsaicin response of rat TRPV1", "setting": "rat TRPV1 [3]", "result": "blocks responses to capsaicin"},
      {"measurement": "effect on proton response of rat TRPV1", "setting": "rat TRPV1 [3]", "result": "not to heat or protons"},
      {"measurement": "action profile of rat TRPV1 (block of capsaicin, not heat or protons) on monkey TRPV1", "setting": "monkey TRPV1", "result": "could not be shown"},
      {"measurement": "action profile of rat TRPV1 (block of capsaicin, not heat or protons) on human TRPV1", "setting": "human TRPV1; ref [10], [11]", "result": "could not be shown"}
    ]},
    {"molecule": "B1", "values": [
      {"measurement": "effect when injected in mice", "setting": "mice", "result": "cause pain behavior"},
      {"measurement": "action on TRPV1", "setting": "TRPV1", "result": "Peptide agonists of TRPV1"}
    ]}
  ]
}
